One assay deals with T1, CFTR (Homo sapiens, UniProt P13569).
T1 construct: endogenous in cells; host or cells: T84 human colonic cells (ECACC)
The assay is described as follows: T84 assay (FLIPR membrane potential dye, forskolin/IBMX-stimulated CFTR channel activity). It is filed as cell-based. The settings on record: imidazole and triazole-containing compounds (Tables 13, 14, 14′), read-out: IC50 (μM) (T84 assay). The gist of the method:
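Fluorescence from a membrane potential dye in T84 monolayers (HBSS with 10 mM Hepes) is followed each second for 150 s. Cells are exposed to test compound during the 45 min dye loading, then challenged with forskolin (10 μM) and IBMX (100 μM) to open CFTR. Inhibitors suppress the depolarization-driven fluorescence increase.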

In another assay the target is T2, CHO-CFTR cell line (Homo sapiens, UniProt P13569).
T2 construct: expressed in transfected cells; host or cells: CHO (CHO-CFTR cell line)
The assay is described as follows: CHO-CFTR assay (FLIPR assay, same conditions as the T84 assay). It is filed as cell-based. The settings on record: imidazole and triazole-containing compounds.

SMILES strings stand for the structures.

T1 sequence (P13569 whole entry): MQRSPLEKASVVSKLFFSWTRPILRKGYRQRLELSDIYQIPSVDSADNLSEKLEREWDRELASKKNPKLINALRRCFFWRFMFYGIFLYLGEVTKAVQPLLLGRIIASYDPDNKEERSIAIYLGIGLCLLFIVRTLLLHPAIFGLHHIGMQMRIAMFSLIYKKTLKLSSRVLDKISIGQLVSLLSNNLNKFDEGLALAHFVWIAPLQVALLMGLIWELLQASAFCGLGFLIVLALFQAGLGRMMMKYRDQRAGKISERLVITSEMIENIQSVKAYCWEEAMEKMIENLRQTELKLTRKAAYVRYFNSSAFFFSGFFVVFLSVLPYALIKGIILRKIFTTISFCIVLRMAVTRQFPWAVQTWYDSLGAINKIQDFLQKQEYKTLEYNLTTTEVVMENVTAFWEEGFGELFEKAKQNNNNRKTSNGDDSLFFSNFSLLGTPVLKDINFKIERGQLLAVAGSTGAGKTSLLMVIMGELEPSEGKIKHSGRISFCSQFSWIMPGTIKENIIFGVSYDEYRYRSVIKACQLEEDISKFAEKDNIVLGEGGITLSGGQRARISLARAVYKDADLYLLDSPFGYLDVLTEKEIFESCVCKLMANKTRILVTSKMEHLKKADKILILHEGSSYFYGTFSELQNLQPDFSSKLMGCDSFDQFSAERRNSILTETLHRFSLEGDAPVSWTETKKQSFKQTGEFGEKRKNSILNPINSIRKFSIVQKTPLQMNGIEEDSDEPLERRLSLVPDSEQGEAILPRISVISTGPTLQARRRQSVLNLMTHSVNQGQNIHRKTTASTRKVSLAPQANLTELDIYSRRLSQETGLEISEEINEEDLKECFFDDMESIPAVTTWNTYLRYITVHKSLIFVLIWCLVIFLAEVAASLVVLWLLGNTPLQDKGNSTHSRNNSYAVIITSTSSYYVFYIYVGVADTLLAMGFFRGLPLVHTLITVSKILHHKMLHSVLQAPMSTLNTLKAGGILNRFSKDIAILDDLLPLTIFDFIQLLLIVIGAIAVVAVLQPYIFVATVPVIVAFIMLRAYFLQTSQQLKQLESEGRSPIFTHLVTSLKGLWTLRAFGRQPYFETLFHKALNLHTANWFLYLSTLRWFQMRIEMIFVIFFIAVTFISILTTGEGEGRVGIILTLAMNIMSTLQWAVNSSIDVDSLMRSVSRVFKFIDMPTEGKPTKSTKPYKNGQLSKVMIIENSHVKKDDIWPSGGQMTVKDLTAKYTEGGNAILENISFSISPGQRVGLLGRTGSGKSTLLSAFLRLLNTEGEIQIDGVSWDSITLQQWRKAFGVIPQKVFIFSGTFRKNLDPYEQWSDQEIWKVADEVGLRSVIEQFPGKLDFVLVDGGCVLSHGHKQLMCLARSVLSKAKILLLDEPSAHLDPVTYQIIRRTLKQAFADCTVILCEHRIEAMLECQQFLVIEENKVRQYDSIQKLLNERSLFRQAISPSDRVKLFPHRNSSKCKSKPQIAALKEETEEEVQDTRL
T2 sequence (P13569 whole entry): as above

Take `O=C(c1ncn(-c2cc(Cl)c(O)c(Cl)c2)n1)N(Cc1cccnc1)Cc1cccc(C(F)(F)F)c1` [94i, 1-(3,5-dichloro-4-hydroxyphenyl)-N-(pyridin-3-ylmethyl)-N-(3-(trifluoromethyl)benzyl)-1H-1,2,4-triazole-3-carboxamide]: the concentration for half-maximal inhibition (IC50) – broadly, the concentration at which inhibition is half-maximal – turned out to be 6.95 µM at CFTR and 21.1 µM against CHO-CFTR cell line.

Turning to `CC(C)(C)c1ccc(C(O)(c2ccc(C(C)(C)C)cc2)c2ncn(-c3cc(Cl)c(O)c(Cl)c3)n2)cc1` [58i, 4-(3-(bis(4-tert-butylphenyl)(hydroxy)methyl)-1H-1,2,4-triazol-1-yl)-2,6-dichlorophenol], the values for the half-inhibitory concentration (IC50) on CFTR and at CHO-CFTR cell line were 11.3 µM and 17 µM, respectively.

For the compound `CC(C)c1ccc(CC(NC(=O)c2ncn(-c3cc(Cl)c(O)c(Cl)c3)n2)C(=O)C(C)(C)C)cc1` (centres unmarked) [134i, 1-(3,5-dichloro-4-hydroxyphenyl)-N-(1-(4-isopropylphenyl)-4,4-dimethyl-3-oxopentan-2-yl)-1H-1,2,4-triazole-3-carboxamide], the results for the half-inhibitory concentration (IC50) at CFTR and at CHO-CFTR cell line were 3.09 µM and 8.6 µM, respectively.

`Oc1c(Cl)cc(-n2cnc(C(O)(c3ccc(F)c(F)c3)c3ccc(F)c(F)c3)n2)cc1Cl` [55i, 4-(3-(bis(3,4-difluorophenyl)(hydroxy)methyl)-1H-1,2,4-triazol-1-yl)-2,6-dichlorophenol]: the values for the half-maximal inhibitory concentration (IC50) at CFTR and against CHO-CFTR cell line were 17.2 µM and 6.94 µM, respectively.

Consider `O=C(NCc1ccc(Oc2ccc(F)c(C(F)(F)F)c2)cc1)c1ncn(-c2cc(Cl)c(O)c(Cl)c2)n1` [67i, 1-(3,5-dichloro-4-hydroxyphenyl)-N-(4-(4-fluoro-3-(trifluoromethyl)phenoxy)benzyl)-1H-1,2,4-triazole-3-carboxamide], for which the IC50 at CFTR was found to be 6.4 µM; at CHO-CFTR cell line it was 14.7 µM.

Take `CCN(Cc1cccc(OC(F)(F)F)c1)C(=O)c1ncn(-c2cc(Cl)c(O)c(Cl)c2)n1` [89i, 1-(3,5-dichloro-4-hydroxyphenyl)-N-ethyl-N-(3-(trifluoromethoxy)benzyl)-1H-1,2,4-triazole-3-carboxamide]: the figures for the half-inhibitory concentration (IC50) at CFTR and against CHO-CFTR cell line were 3.34 µM and 24.6 µM, respectively.

`CC(C)(C)c1ccc(CNC(=O)c2ncn(-c3cc(Cl)c(O)c(Cl)c3)n2)cc1` [34i, N-(4-tert-butylbenzyl)-1-(3,5-dichloro-4-hydroxyphenyl)-1H-1,2,4-triazole-3-carboxamide]: the concentration for half-maximal inhibition (IC50) on CFTR turned out to be 1.18 µM; on CHO-CFTR cell line, 4.72 µM.

Regarding `CC(C)c1ccc(CN(Cc2ccccc2)C(=O)c2ncn(-c3cc(Cl)c(O)c(Cl)c3)n2)cc1` [81i, N-benzyl-1-(3,5-dichloro-4-hydroxyphenyl)-N-(4-isopropylbenzyl)-1H-1,2,4-triazole-3-carboxamide], the concentration for half-maximal inhibition (IC50) on CFTR turned out to be 1.26 µM; on CHO-CFTR cell line it was 16.5 µM.

Take `O=C(NCc1ccc(Oc2ccc(OCc3ccccc3)c(Cl)c2)cc1)c1ncn(-c2cc(Cl)c(O)c(Cl)c2)n1` [72i, N-(4-(4-(benzyloxy)-3-chlorophenoxy)benzyl)-1-(3,5-dichloro-4-hydroxyphenyl)-1H-1,2,4-triazole-3-carboxamide]: the IC50 at CFTR stood at 7.6 µM; against CHO-CFTR cell line, 12.3 µM.

With `O=C(c1ncn(-c2cc(Cl)c(O)c(Cl)c2)n1)N(O)Cc1ccc(Oc2ccccc2)cc1` [131i, 1-(3,5-dichloro-4-hydroxyphenyl)-N-hydroxy-N-(4-phenoxybenzyl)-1H-1,2,4-triazole-3-carboxamide], the results for the IC50 on CFTR and against CHO-CFTR cell line were 4.87 µM and 7.45 µM, respectively.

For the compound `O=C(NCc1ccc(Oc2ccc(OC(F)(F)F)cc2)cc1)c1ncn(-c2cc(Cl)c(O)c(Cl)c2)n1` [66i, 1-(3,5-dichloro-4-hydroxyphenyl)-N-(4-(4-(trifluoromethoxy)phenoxy)benzyl)-1H-1,2,4-triazole-3-carboxamide], the IC50 at CFTR turned out to be 3.2 µM; against CHO-CFTR cell line, 11.3 µM.

Take `CCN(Cc1ccc(Oc2ccccc2)cc1)C(=O)c1ncn(-c2cc(Cl)c(O)c(Cl)c2)n1` [86i, 1-(3,5-dichloro-4-hydroxyphenyl)-N-ethyl-N-(4-phenoxybenzyl)-1H-1,2,4-triazole-3-carboxamide]: the IC50 on CFTR was 1.81 µM; against CHO-CFTR cell line it was 28.9 µM.

On to `O=C(c1ncn(-c2cc(Cl)c(O)c(Cl)c2)n1)N(Cc1ccccc1)Cc1cccnc1` [75i, N-benzyl-1-(3,5-dichloro-4-hydroxyphenyl)-N-(pyridin-3-ylmethyl)-1H-1,2,4-triazole-3-carboxamide], for which the IC50 on CFTR amounted to 15.6 µM; on CHO-CFTR cell line, 40.1 µM.

For the compound `C=CCN(Cc1cccc(OC(F)(F)F)c1)C(=O)c1ncn(-c2cc(Cl)c(O)c(Cl)c2)n1` [103i, N-allyl-1-(3,5-dichloro-4-hydroxyphenyl)-N-(3-(trifluoromethoxy)benzyl)-1H-1,2,4-triazole-3-carboxamide], the results for the IC50 on CFTR and at CHO-CFTR cell line were 2.53 µM and 32.9 µM, respectively.

In the case of `O=C(NCc1ccc(Oc2cc(F)c(F)c(F)c2)cc1)c1ncn(-c2cc(Cl)c(O)c(Cl)c2)n1` [65i, 1-(3,5-dichloro-4-hydroxyphenyl)-N-(4-(3,4,5-trifluorophenoxy)benzyl)-1H-1,2,4-triazole-3-carboxamide], the 50% inhibitory concentration (IC50) on CFTR worked out at 5.83 µM; on CHO-CFTR cell line it was 0.86 µM.

Take `CCON(Cc1ccc(Oc2ccccc2)cc1)C(=O)c1ncn(-c2cc(Cl)c(O)c(Cl)c2)n1` [130i, 1-(3,5-dichloro-4-hydroxyphenyl)-N-ethoxy-N-(4-phenoxybenzyl)-1H-1,2,4-triazole-3-carboxamide]: the IC50 was determined as 2.84 µM on CFTR and 4.09 µM at CHO-CFTR cell line.

As for `CC(C)(C)C(=O)C(Cc1cccc(C(F)(F)F)c1)NC(=O)c1ncn(-c2cc(Cl)c(O)c(Cl)c2)n1` (centres unmarked) [132i, 1-(3,5-dichloro-4-hydroxyphenyl)-N-(4,4-dimethyl-3-oxo-1-(3-(trifluoromethyl)phenyl)pentan-2-yl)-1H-1,2,4-triazole-3-carboxamide], the IC50 on CFTR stood at 3.87 µM; at CHO-CFTR cell line, 26.5 µM.

Take `CON(Cc1ccc(C(C)(C)C)cc1)C(=O)c1ncn(-c2cc(Cl)c(O)c(Cl)c2)n1` [127i, N-(4-tert-butylbenzyl)-1-(3,5-dichloro-4-hydroxyphenyl)-N-methoxy-1H-1,2,4-triazole-3-carboxamide]: the half-maximal inhibitory concentration (IC50) on CFTR worked out at 1.49 µM; on CHO-CFTR cell line, 32.9 µM.

For the compound `C=CCN(Cc1ccc(Cl)c(Cl)c1)C(=O)c1ncn(-c2cc(Cl)c(O)c(Cl)c2)n1` [102i, N-allyl-1-(3,5-dichloro-4-hydroxyphenyl)-N-(3,4-dichlorobenzyl)-1H-1,2,4-triazole-3-carboxamide], the half-inhibitory concentration (IC50) at CFTR amounted to 1.85 µM; at CHO-CFTR cell line it was 2.69 µM.

With `CCN(Cc1ccc(Cl)c(Cl)c1)C(=O)c1ncn(-c2cc(Cl)c(O)c(Cl)c2)n1` [108i, 1-(3,5-dichloro-4-hydroxyphenyl)-N-(3,4-dichlorobenzyl)-N-ethyl-1H-1,2,4-triazole-3-carboxamide], the IC50 at CFTR turned out to be 2.99 µM; on CHO-CFTR cell line it was 4.08 µM.

`CC(C)c1ccc(CN(C(=O)c2ncn(-c3cc(Cl)c(O)c(Cl)c3)n2)C(C)C)cc1` [96i, 1-(3,5-dichloro-4-hydroxyphenyl)-N-isopropyl-N-(4-isopropylbenzyl)-1H-1,2,4-triazole-3-carboxamide]: the half-inhibitory concentration (IC50) on CFTR was determined as 2.53 µM; on CHO-CFTR cell line it was 22.1 µM.

For `Oc1c(Cl)cc(-n2cnc(C(O)(c3cccc(Cl)c3)c3cccc(Cl)c3)n2)cc1Cl` [53i, 4-(3-(bis(3-chlorophenyl)(hydroxy)methyl)-1H-1,2,4-triazol-1-yl)-2,6-dichlorophenol], the results for the IC50 at CFTR and at CHO-CFTR cell line were 13 µM and 4.27 µM, respectively.
